# How the values were obtained:
# [1] = system: symmetric di-methyl arginine in Z-138 cells; test: Z-138 Methylation Assay (In Cell Western for symmetric di-methyl arginine and DNA content); format: cell-based; settings: Homo sapiens, 96 hours incubation, read-out: ICW EC50
# Excerpt: [formula] Where top and bottom are the normally allowed to float, but may be fixed at 100 or 0 respectively in a 3-parameter fit. The Hill Coefficient normally allowed to float but may also be fixed at 1 in a 3-parameter fit. Y is the % inhibition and X is the compound concentration. Z-138 Methylation Assay
# Z-138 suspension cells were purchased from ATCC (American Type Culture Collection, Manassas, Va.). RPMI/Glutamax medium, penicillin-streptomycin, heat inactivated fetal bovine serum, and D-PBS were purchased from Life Technologies, Grand Island, N.Y., USA. Odyssey blocking buffer, 800CW goat anti-rabbit IgG (H+L) antibody, and Licor Odyssey infrared scanner were purchased from Licor Biosciences, Lincoln, Nebr., USA. Symmetric di-methyl arginine antibody was purchased from EMD Millipore, Billerica, Mass., USA. 16% Paraformaldehyde was purchased from Electron Microscopy Sciences, Hatfield, Pa., USA.
# Z-138 suspension cells were maintained in growth medium (RPMI 1640 supplemented with 10% v/v heat inactivated fetal bovine serum and 100 units/mL penicillin-streptomycin) and cultured at 37° C. under 5% CO2.
# Cell Treatment, in Cell Western (ICW) for Detection of Symmetric Di-Methyl Arginine and DNA Content.
# Z-138 cells were seeded in assay medium at a concentration of 50,000 cells per mL to a 384-well cell culture plate with 50 μL per well. Compound (100 nL) from 384 well source plates was added directly to 384 well cell plate. Plates were incubated at 37° C., 5% CO2 for 96 hours. After four days of incubation, 40 μL of cells from incubated plates were added to poly-D-lysine coated 384 well culture plates (BD Biosciences 356697). Plates were incubated at room temperature for 30 minutes then incubated at 37° C., 5% CO2 for 5 hours. After the incubation, 40 μL per well of 8% paraformaldehyde in PBS (16% paraformaldahyde was diluted to 8% in PBS) was added to each plate and incubated for 30 minutes. Plates were transferred to a Biotek 405 plate washer and washed 5 times with 100 μL per well of wash buffer (IX PBS with 0.1% Triton X-100 (v/v)). Next 30 μL per well of Odyssey blocking buffer were added to each plate and incubated 1 hour at room temperature. Blocking buffer was removed and 20 μL per well of primary antibody was added (symmetric di-methyl arginine diluted 1:100 in Odyssey buffer with 0.1% Tween 20 (v/v)) and plates were incubated overnight (16 hours) at 4° C. Plates were washed 5 times with 100 μL per well of wash buffer. Next 20 μL per well of secondary antibody was added (1:200 800CW goat anti-rabbit IgG (H+L) antibody, 1:1000 DRAQ5 (Biostatus limited) in Odyssey buffer with 0.1% Tween 20 (v/v)) and incubated for 1 hour at room temperature. The plates were washed 5 times with 100 μL per well wash buffer then 1 time with 100 μL per well of water. Plates were allowed to dry at room temperature then imaged on the Licor Odyssey machine which measures integrated intensity at 700 nm and 800 nm wavelengths. Both 700 and 800 channels were scanned.
# First, the ratio for each well was determined by:
# Each plate included fourteen control wells of DMSO only treatment (minimum inhibition) as well as fourteen control wells for maximum inhibition treated with 3 μM of a reference compound (Background wells). The average of the ratio values for each control type was calculated and used to determine the percent inhibition for each test well in the plate. Reference compound was serially diluted three-fold in DMSO for a total of nine test concentrations, beginning at 3 μM. Percent inhibition was determined and IC50 curves were generated using triplicate wells per concentration of compound. […]
# Z-138 cells = test: Z-138 Proliferation Assay (Cell Titer Glo); format: cell-based; settings: Homo sapiens, 120 h, 5 days incubation
# Excerpt: [formula] Z-138 Proliferation Assay
# Z-138 suspension cells were purchased from ATCC (American Type Culture Collection, Manassas, Va.). RPMI/Glutamax medium, penicillin-streptomycin, heat inactivated fetal bovine serum were purchased from Life Technologies, Grand Island, N.Y., USA. V-bottom polypropylene 384-well plates were purchased from Greiner Bio-One, Monroe, N.C., USA. Cell culture 384-well white opaque plates were purchased from Perkin Elmer, Waltham, Mass., USA. Cell-Titer Glo® was purchased from Promega Corporation, Madison, Wis., USA. SpectraMax M5 plate reader was purchased from Molecular Devices LLC, Sunnyvale, Calif., USA.
# Z-138 suspension cells were maintained in growth medium (RPMI 1640 supplemented with 10% v/v heat inactivated fetal bovine serum and cultured at 37° C. under 5% CO2. Under assay conditions, cells were incubated in assay medium (RPMI 1640 supplemented with 10% v/v heat inactivated fetal bovine serum and 100 units/mL penicillin-streptomycin) at 37° C. under 5% CO2.
# For the assessment of the effect of compounds on the proliferation of the Z-138 cell line, exponentially growing cells were plated in 384-well white opaque plates at a density of 10,000 cells/ml in a final volume of 50 μl of assay medium. A compound source plate was prepared by performing triplicate nine-point 3-fold serial dilutions in DMSO, beginning at 10 mM (final top concentration of compound in the assay was 20 μM and the DMSO was 0.2%). A 100 nL aliquot from the compound stock plate was added to its respective well in the cell plate. […] After addition of compounds, assay plates were incubated for 5 days at 37° C., 5% CO2, relative humidity >90%.
# Cell viability was measured by quantitation of ATP present in the cell cultures, adding 35 μl of Cell Titer Glo® reagent to the cell plates. Luminescence was read in the SpectraMax M5 microplate reader. The concentration of compound inhibiting cell viability by 50% was determined using a 4-parametric fit of the normalized dose response curves.
EC50 [1] [nM],Compound,EC50 (Z-138 cells) [nM]
1000 to 10000,Cn1ncc2ccc(OCC(=O)NC[C@H](O)CN3Cc4ccccc4C3)cc21 [compound 27],> 20000
101 to 1000,O=C(NC[C@H](O)CN1Cc2ccccc2C1)c1ccnc(NC2CCOCC2)c1 [compound 30],1000 to 10000
1000 to 10000,O=C(NC[C@H](O)CN1Cc2ccccc2C1)c1cncc(NC2CCNC2)c1 (some centres unmarked) [compound 32],> 20000
101 to 1000,CS(=O)(=O)N1CCC(Nc2cncc(C(=O)NC[C@H](O)CN3Cc4ccccc4C3)c2)C1 (some centres unmarked) [compound 33],> 20000
